Results from patent US12215332B2, “Method of increasing resistance against soybean rust in transgenic plants by increasing the scoparone” (BASF PLANT SCIENCE COMPANY GMBH, priority 2018, dated 2025).
“Also recorded” adds a separate entry of the source.

Tests used:
[1] = test system: Phakopsora pachyrhizi uredospores; experiment: In vitro growth inhibition of Phakopsora pachyrhizi: appressoria formation on glass slides; assay type: cell-based
Method: FIG. 2 depicts the inhibition of P. pachyrhitzi appressoria formation by scoparone in a concentration-dependent manner. P. pachyrhizi uredospores were resuspended in H2O supplemented with Tween-20 and 10 μM, 25 μM, 50 μM, 100 μM, 200 μM and 400 μM scoparone (solved in 0.1% DMSO) and incubated on glass slides in high humidity conditions. Treatment with 0.1% DMSO and H2O served as controls. The appressoria formation rate was determined by quantitative microscopic analysis. Only spores showing germtube formation with a visible thickening of the germ tube tip were counted as appressoria formation.
Uredospores of P. pachyrhizi (isolate BRO5) were harvested from heavily infected soybean leaves and equally suspended in water by shaking for 25 s at 5′000 rpm on a Precellys 24 homogenizer in the absence of homogenizing beads (Bertin instruments). […] Germination of spores and fungal development was evaluated by counting developing appressoria in the presence of 10-400 μM scoparone (in 0.1% DMSO) and compared to fungal proliferation in presence of H2O or 0.1% DMSO only (controls).
The germination rate and appressoria formation rate was determined by quantitative microscopic analysis. Spores showing a visible germ tube formation but no thickening of the germ tube tip were counted as “germinated”, whereas the presence of a thickened germ tube tip indicated the formation of an appressoria. […]

[2] = ABTS assay of coumarins' antioxidant activity; assay type: physicochemical; settings: absorbance at 734 nm, 7 minutes at 37° C., compared to scopoletin, scopolin, umbelliferone, ascorbic acid and Trolox
Method: Antioxidant activity of scoparone was determined in an 2,2′-azinobis-(3-ethylbenzothiazoline-6-sulfonic acid) (ABTS)-assay and compared to authentic analytical standards of scopoletin, scopolin, umbelliferone, ascorbic acid and Trolox (6-hydroxy-2,5,7,8-tetramethylchroman-2-carboxylic acid).
The 2,2′-azinobis-(3-ethylbenzothiazoline-6-sulfonic acid (ABTS)-assay10 was applied to compare the antioxidant activity of different coumarins to Trolox and ascorbic acid as references. The radical monocation of ABTS (ABTS·+) was generated by oxidation of ABTS with potassium persulfate (K2S2O8) This was done by mixing aqueous ABTS (7 mM) and K2S2O8 (2.4 mM) in a 1:1 ratio (v/v). The mixture was placed in the dark and incubated at room temperature for 16 hours and then diluted with ethanol to an absorbance of 0.7 (±0.02) at 734 nm. All solutions were brought to a temperature of 37° C. Next, 990 μl of ABTS·+ was mixed with 10 μl of a test solution containing different concentrations of a coumarin standard. Ascorbic acid and Trolox served as positive and ethanol as the blanc control. Mixtures were incubated at 37° C. in a thermomixer (700 rpm) for 7 minutes. Absorbance at 734 nm was measured in a spectrophotometer following incubation for 7 minutes at 37° C. in a thermomixer (700 rpm).

With `COc1cc2ccc(=O)oc2cc1OC` [scoparone, 6,7-dimethoxycoumarin] the “formation of appressoria in-vitro” value ([1]; 400 μM scoparone) was “completely abolishes the formation of appressoria”, the appressoria formation rate ([1]; 10, 25, 50, 100, 200 and 400 μM scoparone in 0.1% DMSO, spores in H2O with Tween-20 on glass slides, controls 0.1% DMSO and H2O) was “inhibiting appressoria formation in a dose dependent manner; also recorded: decreases the formation of appressoria in a dose dependent manner” and the antioxidant activity [2] was “lacks antioxidant activity”.
